# Active and inactive are the calls of the source. No cut-off for these calls is given here.
# Legend:
# [1] = Anti-fibrosis activity in Ccl4-induced C57BL/6Nifdc mouse model assessed as decrease in serum triglyceride level administered at 0.03 to 0.1 mg/kg,po for 3 weeks; assay type: ADME, organism-based; conditions: in vivo, 504 h, dose 0.03-0.1 mg/kg
# [2] = target: Thyroid hormone receptor beta (Homo sapiens) (UniProt P10828); test: Agonist activity at THRbeta (unknown origin) transfected in african green monkey COS7 cells assessed transactivation incubated at 1 uM for 16 hrs by luciferase assay; assay type: cell-based
# Thyroid hormone receptor beta (Homo sapiens), sequence (P10828 whole entry): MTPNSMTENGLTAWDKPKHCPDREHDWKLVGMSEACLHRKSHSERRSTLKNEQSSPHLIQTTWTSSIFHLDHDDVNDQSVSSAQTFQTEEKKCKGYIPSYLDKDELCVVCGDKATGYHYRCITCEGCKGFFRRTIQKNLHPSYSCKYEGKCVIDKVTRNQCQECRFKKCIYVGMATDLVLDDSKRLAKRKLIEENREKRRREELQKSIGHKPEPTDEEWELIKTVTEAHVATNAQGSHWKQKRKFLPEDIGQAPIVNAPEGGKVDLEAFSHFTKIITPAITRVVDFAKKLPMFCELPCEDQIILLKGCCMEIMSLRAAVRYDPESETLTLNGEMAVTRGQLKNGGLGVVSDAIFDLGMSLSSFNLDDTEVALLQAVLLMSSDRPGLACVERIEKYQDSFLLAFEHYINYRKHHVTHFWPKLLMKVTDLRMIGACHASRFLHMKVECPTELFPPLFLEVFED
# [3] = In vivo upregulation of PPAR alpha in C57BL/6JNifdc mouse liver administered at 0.03 mg/kg, po for 3 days measured after 6 hrs of last administration by real-time PCR analysis; assay type: ADME, organism-based; conditions: 78 h, time 3.25 day
# [4] = Anti-cholestatic activity in ANIT-induced C57BL/6Nifdc mouse model assessed as downregulation of NF-kappaB signalling pathway at 0.03 to 0.1 mg/kg, po upto 42 hrs measured after 48 hrs; assay type: ADME, organism-based; conditions: in vivo, 90 h, dose 0.03-0.1 mg/kg
# COS-7 = test: Cytotoxicity against african green monkey COS7 cells incubated upto 100 uM for 24 hrs by CCK8 assay; assay type: toxicity, cell-based; conditions: chlorocebus aethiops, cos-7, 24 h
# HepG2 = test: Cytotoxicity against human HepG2 cells incubated upto 100 uM for 24 hrs by CCK8 assay; assay type: toxicity, cell-based; conditions: hepg2, 24 h
# [5] = Anti-cholestatic activity in ANIT-induced C57BL/6Nifdc mouse model assessed as decrease in serum alanine aminotransferase at 0.03 to 0.1 mg/kg, po upto 42 hrs measured after 48 hrs; assay type: ADME, organism-based; conditions: in vivo, 90 h, dose 0.03-0.1 mg/kg
# [6] = Anti-cholestatic activity in ANIT-induced C57BL/6Nifdc mouse model assessed as decrease in liver DHCA at 0.03 to 0.1 mg/kg, po upto 42 hrs measured after 48 hrs; assay type: ADME, organism-based; conditions: in vivo, 90 h, dose 0.03-0.1 mg/kg
# [7] = Anti-cholestatic activity in ANIT-induced C57BL/6Nifdc mouse model assessed as decrease in liver T-MCA at 0.03 to 0.1 mg/kg, po upto 42 hrs measured after 48 hrs; assay type: ADME, organism-based; conditions: in vivo, 90 h, dose 0.03-0.1 mg/kg
# [8] = In vivo upregulation of PPAR alpha in C57BL/6JNifdc mouse liver administered orally for 3 days measured after 6 hrs of last administration by real-time PCR analysis; assay type: ADME, organism-based; conditions: po, 78 h, dose 0.03-0.1 mg/kg, time 3.25 day
# [9] = Mutagenicity in Salmonella typhimurium TA100 measured at 0.21 to 16.67 mg/ml for 72 hrs by mini-Ames test; assay type: toxicity; conditions: salmonella enterica subsp. enterica serovar typhimurium, dose 0.21-16.67 mg/ml
# [10] = Anti-cholestatic activity in ANIT-induced C57BL/6Nifdc mouse model assessed as decrease in serum aspartate aminotransferase at 0.03 to 0.1 mg/kg, po upto 42 hrs measured after 48 hrs; assay type: ADME, organism-based; conditions: in vivo, 90 h, dose 0.03-0.1 mg/kg
# [11] = Down-streaming of Cyp7a1 gene expression in C57BL/6JNifdc mouse liver assessed as hepatic resorption of bile acid administered at 0.03 mg/kg, po for 3 days measured after 6 hrs of last administration by real-time PCR analysis; assay type: ADME, organism-based; conditions: in vivo, 78 h
# [12] = Down-streaming of Cyp27a1 gene expression in C57BL/6JNifdc mouse liver assessed as hepatic resorption of bile acid administered at 0.03 mg/kg, po for 3 days measured after 6 hrs of last administration by real-time PCR analysis; assay type: ADME, organism-based; conditions: in vivo, 78 h
# [13] = Clearance in fasted Sprague-Dawley rat at 2 mg/kg, IV measured at 0.083 to 24 hrs by LC-MS/MS analysis; assay type: ADME, organism-based; conditions: in vivo, time 0.083-24 hrs
# [14] = Down-streaming of Oatp1 gene expression in C57BL/6JNifdc mouse liver assessed as hepatic resorption of bile acid administered at 0.03 to 0.1 mg/kg, po for 3 days measured after 6 hrs of last administration by real-time PCR analysis; assay type: ADME, organism-based; conditions: in vivo, 78 h, dose 0.03-0.1 mg/kg, time 3.25 day
# [15] = Anti-cholestatic activity in ANIT-induced C57BL/6Nifdc mouse model assessed as decrease in liver TBA at 0.03 to 0.1 mg/kg, po upto 42 hrs measured after 48 hrs; assay type: ADME, organism-based; conditions: in vivo, 90 h, dose 0.03-0.1 mg/kg
# [16] = Anti-cholestatic activity in ANIT-induced C57BL/6Nifdc mouse model assessed as decrease in serum TBA at 0.03 to 0.1 mg/kg, po upto 42 hrs measured after 48 hrs; assay type: ADME, organism-based; conditions: in vivo, 90 h, dose 0.03-0.1 mg/kg
structure (smiles),measurement,setting,value
Cc1cc(CN2C(=O)CN(c3ccc(C(F)(F)F)cc3)C2=O)cc(C)c1OC(C)(C)C(=O)O,Activity,[1],Active
same,Activity,[2],inactive
same,Activity,[3],Active
same,Activity,[4],Active
same,Activity,COS-7,Non-Toxic
same,Activity,HepG2,Non-Toxic
same,Activity,[5],Active
same,Activity,[6],Active
same,Activity,[7],Active
same,Activity,[8],Dose-Dependent Effect
same,Activity,[9],Non-Toxic
same,Activity,[10],Active
same,Activity,[11],Active
same,Activity,[12],Active
same,CL,[13],8.4 mL/min/kg
same,Activity,[14],Active
same,Activity,[15],Active
same,Activity,[16],Active

# Reference: ChEMBL document CHEMBL5338805, “Discovery of the First Subnanomolar PPARα/δ Dual Agonist for the Treatment of Cholestatic Liver Diseases” (J Med Chem, 2023)
